Test results: ChEMBL document CHEMBL1201862, “PubChem BioAssay data set” (2004)
Active and inactive are the calls of the source.

Tests used:
Troponin, cardiac muscle = Troponin, cardiac muscle (Homo sapiens, UniProt P19429+P45379+P63316); experiment: Fluorescence-based biochemical high throughput dose response assay for activators of the calcium sensitivity of cardiac Regulated Thin Filaments (RTF). [Related pubchem assays (depositor defined):AID493008, AID493018, AID504382, AID504383]; assay type: protein-complex assay
[1] = biological target: T1, Short transient receptor potential channel 4 (Mus musculus, UniProt Q9QUQ5); experiment: mouse TRPC4 channel activators, dose response, cell-based, HEK293 TRPC4/mu-opioid, Fluo-4 calcium (AID 434937); assay type: functional
T1 sequence (Q9QUQ5 whole entry): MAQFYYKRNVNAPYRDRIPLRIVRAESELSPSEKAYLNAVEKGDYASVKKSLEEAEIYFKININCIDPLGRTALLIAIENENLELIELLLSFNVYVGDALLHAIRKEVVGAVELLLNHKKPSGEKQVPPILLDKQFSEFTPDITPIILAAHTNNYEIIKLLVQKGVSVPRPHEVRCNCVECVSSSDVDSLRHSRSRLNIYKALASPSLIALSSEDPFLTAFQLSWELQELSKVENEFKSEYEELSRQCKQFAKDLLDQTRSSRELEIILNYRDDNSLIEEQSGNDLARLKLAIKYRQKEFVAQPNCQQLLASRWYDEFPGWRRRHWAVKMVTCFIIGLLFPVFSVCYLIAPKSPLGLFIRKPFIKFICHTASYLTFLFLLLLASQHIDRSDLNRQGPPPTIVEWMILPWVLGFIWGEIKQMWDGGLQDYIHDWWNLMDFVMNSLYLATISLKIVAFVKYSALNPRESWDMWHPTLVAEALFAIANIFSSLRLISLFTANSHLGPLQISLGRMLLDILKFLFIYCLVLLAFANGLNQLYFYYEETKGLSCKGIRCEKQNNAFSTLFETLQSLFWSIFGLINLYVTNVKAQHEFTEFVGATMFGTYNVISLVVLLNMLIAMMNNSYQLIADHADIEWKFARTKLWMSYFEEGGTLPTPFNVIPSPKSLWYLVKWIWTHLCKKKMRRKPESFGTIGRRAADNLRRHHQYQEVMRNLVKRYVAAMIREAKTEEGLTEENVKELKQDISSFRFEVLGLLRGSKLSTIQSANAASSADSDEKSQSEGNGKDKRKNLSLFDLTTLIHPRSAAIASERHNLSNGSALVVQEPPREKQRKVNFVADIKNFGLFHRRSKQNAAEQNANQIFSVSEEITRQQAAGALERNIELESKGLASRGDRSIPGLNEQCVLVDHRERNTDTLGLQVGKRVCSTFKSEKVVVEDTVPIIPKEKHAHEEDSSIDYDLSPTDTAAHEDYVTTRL

[2] = biological target: DNA dC->dU-editing enzyme APOBEC-3A (Homo sapiens, UniProt P31941); experiment: APOBEC3A DNA deaminase inhibitors, dose response, biochemical (AID 504722); assay type: functional
Large T antigen = Large T antigen (Simian virus 40, UniProt P03070); assay type: functional, Betapolyomavirus macacae;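 note: Confirmatory-stage PubChem screen for compounds that inhibit SV40 T antigen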
[3] = biological target: DNA dC->dU-editing enzyme APOBEC-3G (Homo sapiens, UniProt Q9HC16); experiment: Dose Response confirmation of small molecule APOBEC3G DNA Deaminase Inhibitors via a fluorescence-based single-stranded DNA deaminase assay. [Related pubchem assays (depositor defined):AID493012, AID493028]; assay type: functional
[4] = biological target: T2, Acyl-homoserine lactone acylase PvdQ (Pseudomonas aeruginosa (strain LESB58), UniProt Q9I194); experiment: P. aeruginosa PvdQ acylase inhibitors, dose response, biochemical, fluorescence, plate reader and imaging, cherry-picks (AID 493231)
T2 sequence (Q9I194 whole entry): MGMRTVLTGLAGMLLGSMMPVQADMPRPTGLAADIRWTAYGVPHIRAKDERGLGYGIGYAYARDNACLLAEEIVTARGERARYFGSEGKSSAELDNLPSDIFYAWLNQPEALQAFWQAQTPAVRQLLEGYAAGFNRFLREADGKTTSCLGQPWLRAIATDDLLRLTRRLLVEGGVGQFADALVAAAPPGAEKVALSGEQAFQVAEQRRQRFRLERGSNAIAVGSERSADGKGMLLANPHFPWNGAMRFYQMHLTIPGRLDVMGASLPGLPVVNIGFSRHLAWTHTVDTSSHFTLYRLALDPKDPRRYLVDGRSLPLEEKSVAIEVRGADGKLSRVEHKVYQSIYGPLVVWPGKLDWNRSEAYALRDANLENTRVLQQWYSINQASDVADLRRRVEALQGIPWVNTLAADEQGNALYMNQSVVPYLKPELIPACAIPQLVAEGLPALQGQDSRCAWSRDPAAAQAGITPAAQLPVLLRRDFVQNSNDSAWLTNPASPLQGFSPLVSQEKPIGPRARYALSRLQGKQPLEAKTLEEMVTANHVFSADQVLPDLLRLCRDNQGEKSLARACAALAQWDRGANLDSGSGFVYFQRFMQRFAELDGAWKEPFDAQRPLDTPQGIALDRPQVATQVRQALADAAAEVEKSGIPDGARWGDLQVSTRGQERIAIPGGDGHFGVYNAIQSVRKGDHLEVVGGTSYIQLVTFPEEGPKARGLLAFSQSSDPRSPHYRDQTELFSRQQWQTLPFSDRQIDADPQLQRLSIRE

[5] = biological target: T3, Heat shock factor protein 1 (Mus musculus, UniProt P38532); experiment: inhibition of MG132-induced HSE-luciferase signal, confirmation, cell-based, NIH3T3, luminescence, dose retest (AID 2382); assay type: functional;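 note: NIH3T3 fibroblasts with HSF1-driven luciferase reporter stressed by proteasome inhibitor MG132; luminescence from HSF1-driven luciferase expression after 8 hours of MG132 stress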
T3 sequence (P38532 whole entry): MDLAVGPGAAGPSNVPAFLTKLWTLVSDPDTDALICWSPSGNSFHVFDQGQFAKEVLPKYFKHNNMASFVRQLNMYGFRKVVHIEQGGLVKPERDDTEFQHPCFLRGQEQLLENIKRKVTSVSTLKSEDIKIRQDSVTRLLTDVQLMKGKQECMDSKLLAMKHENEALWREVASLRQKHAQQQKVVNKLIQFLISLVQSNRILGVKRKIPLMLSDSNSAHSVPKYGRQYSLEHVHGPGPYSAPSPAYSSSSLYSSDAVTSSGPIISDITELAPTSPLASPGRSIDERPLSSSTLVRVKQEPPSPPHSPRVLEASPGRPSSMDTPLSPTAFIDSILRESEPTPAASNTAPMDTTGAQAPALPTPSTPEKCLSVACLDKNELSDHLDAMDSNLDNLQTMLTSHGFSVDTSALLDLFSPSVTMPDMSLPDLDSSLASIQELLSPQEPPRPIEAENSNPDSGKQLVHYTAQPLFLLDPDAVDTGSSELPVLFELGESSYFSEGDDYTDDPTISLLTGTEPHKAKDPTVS

Escherichia coli = experiment: microbe, parasite or virus in culture
[6] = biological target: T4, High affinity choline transporter 1 (Homo sapiens, UniProt Q9GZV3); experiment: CHT inhibitors, dose response, cell-based, 5-point CRC, membrane potential dye (AID 504840); assay type: functional
T4 sequence (Q9GZV3 whole entry): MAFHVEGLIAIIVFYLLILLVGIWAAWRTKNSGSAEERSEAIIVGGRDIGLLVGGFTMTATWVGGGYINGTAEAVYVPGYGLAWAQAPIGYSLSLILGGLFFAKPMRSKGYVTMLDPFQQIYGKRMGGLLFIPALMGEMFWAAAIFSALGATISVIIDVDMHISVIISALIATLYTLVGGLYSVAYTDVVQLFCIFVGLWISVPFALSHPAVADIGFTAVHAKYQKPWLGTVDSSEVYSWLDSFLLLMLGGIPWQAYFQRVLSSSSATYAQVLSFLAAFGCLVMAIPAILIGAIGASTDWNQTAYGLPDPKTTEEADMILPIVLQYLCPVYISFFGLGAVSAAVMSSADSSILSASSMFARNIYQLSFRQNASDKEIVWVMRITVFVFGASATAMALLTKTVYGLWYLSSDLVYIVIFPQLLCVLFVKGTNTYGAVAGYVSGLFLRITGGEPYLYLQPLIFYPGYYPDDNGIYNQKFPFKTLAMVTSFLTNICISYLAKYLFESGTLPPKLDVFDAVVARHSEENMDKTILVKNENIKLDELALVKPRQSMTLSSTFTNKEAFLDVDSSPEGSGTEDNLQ

[7] = biological target: FAD-linked sulfhydryl oxidase ALR (Homo sapiens, UniProt P55789); experiment: inhibitors of human ALR sulfhydryl oxidase, dose response, biochemical, H2O2 detection, luminescence, cherry-pick (AID 493248)
Estrogen receptor beta [8] = biological target: T5, Estrogen receptor beta (Homo sapiens, UniProt Q92731); experiment: ERβ–SRC-3 coactivator interaction inhibitors, confirmation, orthogonal assay, biochemical, ELISA, streptavidin-HRP readout (AID 1060)
Estrogen receptor = biological target: T6, Estrogen receptor (Homo sapiens, UniProt P03372);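 note: potency for inhibiting coactivator peptide recruitment to the receptor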
T6 sequence (P03372 whole entry): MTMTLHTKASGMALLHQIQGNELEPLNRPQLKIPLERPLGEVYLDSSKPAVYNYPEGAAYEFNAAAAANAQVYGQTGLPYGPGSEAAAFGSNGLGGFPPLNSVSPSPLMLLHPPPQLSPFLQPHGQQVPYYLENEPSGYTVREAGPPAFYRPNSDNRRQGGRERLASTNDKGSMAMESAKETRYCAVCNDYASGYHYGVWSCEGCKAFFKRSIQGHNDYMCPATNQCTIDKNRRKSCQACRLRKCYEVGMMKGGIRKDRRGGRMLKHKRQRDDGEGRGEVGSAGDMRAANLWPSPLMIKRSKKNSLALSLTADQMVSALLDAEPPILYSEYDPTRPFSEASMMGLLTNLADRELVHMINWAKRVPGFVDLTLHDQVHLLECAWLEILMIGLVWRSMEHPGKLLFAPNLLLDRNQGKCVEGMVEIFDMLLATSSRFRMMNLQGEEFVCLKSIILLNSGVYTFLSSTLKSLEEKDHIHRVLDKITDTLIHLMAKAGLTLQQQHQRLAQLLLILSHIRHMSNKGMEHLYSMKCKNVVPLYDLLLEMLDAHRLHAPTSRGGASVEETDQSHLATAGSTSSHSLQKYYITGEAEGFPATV

Estrogen receptor beta [9] = biological target: T5, Estrogen receptor beta
[10] = biological target: Voltage-dependent T-type calcium channel subunit alpha-1H (Homo sapiens, UniProt O95180); assay type: functional;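 note: channel activity triggered by adding a high calcium stimulation buffer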
[11] = growth suppression of beta-catenin-knockout colon cells, dose response, cell-based, HCT116, human colon tumor (AID 1045); assay type: functional;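 note: HCT116 colon tumor cells with beta catenin knocked out; cells exposed to compound for 60 hours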
[12] = growth suppression of PTEN-null colon cells, dose response, cell-based, HCT116 PTEN knockout (AID 1047); assay type: functional;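 note: HCT116 colon tumor cells with PTEN knocked out; cells exposed to compound for 60 hours before readout; potency for loss of cell viability measured by luminescence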

DNA dC->dU-editing enzyme APOBEC-3G, sequence (Q9HC16 whole entry): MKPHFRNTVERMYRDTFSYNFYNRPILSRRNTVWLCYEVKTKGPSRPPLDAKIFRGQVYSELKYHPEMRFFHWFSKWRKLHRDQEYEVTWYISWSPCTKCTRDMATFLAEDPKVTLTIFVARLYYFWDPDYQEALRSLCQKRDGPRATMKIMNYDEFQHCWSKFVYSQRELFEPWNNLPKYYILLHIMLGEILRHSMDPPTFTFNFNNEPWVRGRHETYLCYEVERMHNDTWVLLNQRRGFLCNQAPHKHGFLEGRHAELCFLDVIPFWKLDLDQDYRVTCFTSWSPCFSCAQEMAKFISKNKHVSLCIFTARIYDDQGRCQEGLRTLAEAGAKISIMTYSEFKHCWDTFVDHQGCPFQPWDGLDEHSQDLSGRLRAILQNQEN
T5 sequence (Q92731 whole entry): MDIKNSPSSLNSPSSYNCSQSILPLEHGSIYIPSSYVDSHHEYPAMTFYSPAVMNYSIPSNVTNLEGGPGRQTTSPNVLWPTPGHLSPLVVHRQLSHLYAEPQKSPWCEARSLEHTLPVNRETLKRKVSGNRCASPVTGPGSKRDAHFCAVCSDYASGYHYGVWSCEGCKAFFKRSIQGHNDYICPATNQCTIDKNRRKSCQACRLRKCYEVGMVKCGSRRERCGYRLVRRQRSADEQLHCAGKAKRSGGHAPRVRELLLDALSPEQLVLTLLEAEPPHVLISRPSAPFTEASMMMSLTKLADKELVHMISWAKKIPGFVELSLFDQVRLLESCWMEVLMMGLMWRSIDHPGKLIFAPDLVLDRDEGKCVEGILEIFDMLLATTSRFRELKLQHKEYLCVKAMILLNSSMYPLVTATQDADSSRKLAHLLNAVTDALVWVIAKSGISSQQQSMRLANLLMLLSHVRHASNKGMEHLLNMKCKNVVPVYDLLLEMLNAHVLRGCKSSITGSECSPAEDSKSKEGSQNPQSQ
Voltage-dependent T-type calcium channel subunit alpha-1H, sequence (O95180 whole entry): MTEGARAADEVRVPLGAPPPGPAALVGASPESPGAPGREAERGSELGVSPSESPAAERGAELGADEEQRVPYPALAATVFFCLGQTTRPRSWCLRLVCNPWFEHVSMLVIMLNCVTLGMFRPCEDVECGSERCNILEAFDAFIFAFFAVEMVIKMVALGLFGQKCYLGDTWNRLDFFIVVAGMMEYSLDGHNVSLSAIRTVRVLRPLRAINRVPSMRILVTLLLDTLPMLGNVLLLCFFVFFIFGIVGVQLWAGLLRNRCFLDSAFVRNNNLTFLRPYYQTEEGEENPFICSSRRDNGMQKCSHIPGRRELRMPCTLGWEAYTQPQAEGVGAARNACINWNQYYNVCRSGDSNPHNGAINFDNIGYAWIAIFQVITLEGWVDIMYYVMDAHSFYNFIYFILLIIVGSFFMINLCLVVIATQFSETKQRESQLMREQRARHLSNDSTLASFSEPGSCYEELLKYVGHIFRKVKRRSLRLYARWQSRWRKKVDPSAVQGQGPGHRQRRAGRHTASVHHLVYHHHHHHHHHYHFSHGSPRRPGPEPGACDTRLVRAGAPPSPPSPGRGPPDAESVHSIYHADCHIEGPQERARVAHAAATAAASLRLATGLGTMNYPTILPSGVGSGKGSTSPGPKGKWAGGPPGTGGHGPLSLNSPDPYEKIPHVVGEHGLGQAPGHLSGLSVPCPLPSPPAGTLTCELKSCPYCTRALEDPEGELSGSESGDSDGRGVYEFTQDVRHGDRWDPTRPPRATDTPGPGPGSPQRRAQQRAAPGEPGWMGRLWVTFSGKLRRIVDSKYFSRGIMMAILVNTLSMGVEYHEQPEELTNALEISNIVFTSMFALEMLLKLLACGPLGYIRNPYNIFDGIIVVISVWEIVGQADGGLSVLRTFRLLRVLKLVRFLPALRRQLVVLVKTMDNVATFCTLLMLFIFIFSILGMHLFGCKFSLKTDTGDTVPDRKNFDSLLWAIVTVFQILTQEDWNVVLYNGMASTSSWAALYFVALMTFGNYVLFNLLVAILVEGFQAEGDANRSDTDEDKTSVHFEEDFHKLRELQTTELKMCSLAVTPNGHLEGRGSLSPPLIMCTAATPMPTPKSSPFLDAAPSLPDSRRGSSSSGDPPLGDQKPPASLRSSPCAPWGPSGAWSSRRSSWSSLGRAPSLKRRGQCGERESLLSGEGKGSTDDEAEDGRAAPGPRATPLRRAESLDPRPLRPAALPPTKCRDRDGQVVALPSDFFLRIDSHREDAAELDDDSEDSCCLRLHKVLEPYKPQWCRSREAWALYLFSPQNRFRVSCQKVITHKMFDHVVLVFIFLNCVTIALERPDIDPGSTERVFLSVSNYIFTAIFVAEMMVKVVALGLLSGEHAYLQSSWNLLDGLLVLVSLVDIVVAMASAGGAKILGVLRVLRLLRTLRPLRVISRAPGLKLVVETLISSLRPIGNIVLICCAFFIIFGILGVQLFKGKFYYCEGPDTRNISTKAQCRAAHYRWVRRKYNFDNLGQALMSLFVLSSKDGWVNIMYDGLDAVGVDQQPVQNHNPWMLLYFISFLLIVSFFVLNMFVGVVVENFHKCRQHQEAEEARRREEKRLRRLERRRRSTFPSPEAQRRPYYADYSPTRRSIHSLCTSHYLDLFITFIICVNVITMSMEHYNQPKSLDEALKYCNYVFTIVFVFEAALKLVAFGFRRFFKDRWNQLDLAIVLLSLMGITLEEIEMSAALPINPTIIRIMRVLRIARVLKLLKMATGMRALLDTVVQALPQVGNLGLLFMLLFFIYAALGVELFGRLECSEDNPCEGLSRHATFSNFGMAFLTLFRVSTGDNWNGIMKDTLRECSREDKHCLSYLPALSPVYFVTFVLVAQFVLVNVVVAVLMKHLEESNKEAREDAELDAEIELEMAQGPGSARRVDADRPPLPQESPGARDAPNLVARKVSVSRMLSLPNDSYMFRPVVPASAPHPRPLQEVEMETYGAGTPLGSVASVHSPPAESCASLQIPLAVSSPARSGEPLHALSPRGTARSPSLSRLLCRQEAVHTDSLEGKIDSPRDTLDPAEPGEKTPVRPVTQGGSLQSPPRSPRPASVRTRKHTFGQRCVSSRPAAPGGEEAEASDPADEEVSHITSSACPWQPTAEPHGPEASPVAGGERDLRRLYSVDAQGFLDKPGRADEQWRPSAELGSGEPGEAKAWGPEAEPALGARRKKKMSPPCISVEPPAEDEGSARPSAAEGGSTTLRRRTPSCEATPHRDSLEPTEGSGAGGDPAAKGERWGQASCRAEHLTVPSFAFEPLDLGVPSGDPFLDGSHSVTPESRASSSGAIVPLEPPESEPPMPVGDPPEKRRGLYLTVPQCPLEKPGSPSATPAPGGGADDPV
DNA dC->dU-editing enzyme APOBEC-3A, sequence (P31941 whole entry): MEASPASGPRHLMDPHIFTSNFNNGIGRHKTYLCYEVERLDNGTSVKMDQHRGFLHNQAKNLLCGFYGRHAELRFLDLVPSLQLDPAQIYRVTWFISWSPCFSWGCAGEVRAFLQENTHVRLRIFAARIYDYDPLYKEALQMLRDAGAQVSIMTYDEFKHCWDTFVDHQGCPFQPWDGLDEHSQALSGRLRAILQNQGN
FAD-linked sulfhydryl oxidase ALR, sequence (P55789 whole entry): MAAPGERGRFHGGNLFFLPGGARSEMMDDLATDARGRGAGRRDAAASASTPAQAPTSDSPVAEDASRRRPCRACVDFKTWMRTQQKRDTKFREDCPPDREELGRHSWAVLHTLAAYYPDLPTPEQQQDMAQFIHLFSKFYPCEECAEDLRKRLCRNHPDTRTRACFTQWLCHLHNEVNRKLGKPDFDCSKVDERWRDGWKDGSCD
Large T antigen, sequence (P03070 whole entry): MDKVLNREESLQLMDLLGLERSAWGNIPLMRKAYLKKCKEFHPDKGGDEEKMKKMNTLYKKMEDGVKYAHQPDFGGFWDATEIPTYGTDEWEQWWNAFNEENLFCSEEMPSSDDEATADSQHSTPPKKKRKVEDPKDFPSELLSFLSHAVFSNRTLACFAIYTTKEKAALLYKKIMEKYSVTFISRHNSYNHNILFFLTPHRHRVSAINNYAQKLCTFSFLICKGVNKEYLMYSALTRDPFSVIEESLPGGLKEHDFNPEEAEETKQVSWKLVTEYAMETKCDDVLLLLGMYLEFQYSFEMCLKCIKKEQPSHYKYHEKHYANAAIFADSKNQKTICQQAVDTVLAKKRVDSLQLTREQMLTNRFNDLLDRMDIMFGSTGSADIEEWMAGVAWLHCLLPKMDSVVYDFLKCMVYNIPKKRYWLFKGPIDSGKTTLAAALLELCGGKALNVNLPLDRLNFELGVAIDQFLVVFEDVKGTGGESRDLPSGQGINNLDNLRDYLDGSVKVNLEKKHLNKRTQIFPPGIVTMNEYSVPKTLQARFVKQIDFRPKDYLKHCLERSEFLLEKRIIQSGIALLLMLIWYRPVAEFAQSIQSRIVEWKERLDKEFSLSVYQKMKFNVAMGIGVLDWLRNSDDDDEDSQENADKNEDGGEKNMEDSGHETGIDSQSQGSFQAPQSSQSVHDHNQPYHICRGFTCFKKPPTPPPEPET

O=C(c1cnc2ccccc2n1)N1CCN(c2ccc(C(F)(F)F)cn2)CC1
EC50 (Troponin, cardiac muscle): > 71.4 µM (inactive)

COc1c(C)cc(C(=O)C2CCCN(Cc3cccc4nccnc34)C2)cc1C (stereo unspecified)
EC50 [1]: 3.35 µM (active)

Fc1cccc(C2NCCc3[nH]cnc32)c1 (stereo unspecified)
EC50 [1]: 3.76 µM (active)

O=c1c2c3c(sc2n2c(S)nnc2n1-c1ccccc1)CCC3
IC50 [2]: > 100 µM (inactive)
IC50 (Large T antigen): 30.4 µM (active)
IC50 [3]: 3.72 µM (active)

CCCNS(=O)(=O)c1ccc(OC)c(Cl)c1Cl
AC50 [4]: 8.91 µM (active)

CCOC(=O)CSc1cc(CS(C)(=O)=O)nc(-c2ccccn2)n1
EC50 [5]: > 195 µM (not active)
AC50 (Escherichia coli): 56.8 µM (active)

Cn1c(S)nnc1-c1sc2ccccc2c1Cl
IC50 [6]: 8.32 µM (active)
AC50 [7]: 12 µM (active)
IC50 [2]: > 100 µM (inactive)
IC50 [3]: 0.936 µM (active)

COc1ccc(NC2=NC(=O)S/C2=C\c2ccc(N(C)C)cc2)cc1
IC50 (Estrogen receptor beta [8]): 85.5 µM (not active)
IC50 (Estrogen receptor): 33.3 µM (not active)
EC50 (Troponin, cardiac muscle): 2.02 µM (active)
IC50 (Estrogen receptor beta [9]): 12.7 µM (active)

Cn1cccc1C(C#N)c1cccc(F)c1C#N (stereo unspecified)
AC50 [4]: 4.57 µM (active)

O=[N+]([O-])c1ccc(N2CCCC2)nc1
AC50 [4]: 5.4 µM (active)

C=CCc1ccc(OCC(O)CN2CCC(Cc3ccccc3)CC2)c(OC)c1 (stereo unspecified)
IC50 [6]: 19.1 µM (active)
EC50 [10]: 6.13 µM (active)

Cc1c(NC(=O)CSc2nnc(C(C)Oc3ccc(Cl)cc3)n2-c2ccccc2)c(=O)n(-c2ccccc2)n1C (stereo unspecified)
IC50 [6]: 13.8 µM (active)

O=C(/C=C/c1cccs1)c1cc(Cl)ccc1O
AC50 [4]: 4.67 µM (active)

COc1ccc2[nH]c(SCCN(C)C)nc2c1
EC50 [1]: 0.149 µM (active)

O=C(Cn1cnc2c(cnn2-c2ccccc2)c1=O)Nc1ccc(S(=O)(=O)N2CCOCC2)cc1
EC50 (Troponin, cardiac muscle): > 71.5 µM (inactive)

COc1ccc2c(c1)c(C(O)CN1CCC(Cc3ccccc3)CC1)c(C)n2C (stereo unspecified)
AC50 (Escherichia coli): 73.6 µM (active)

N=c1n(Cc2ccccc2)c2ccccc2n1CC(O)COc1ccccc1 (stereo unspecified)
IC50 [6]: 9.78 µM (active)
EC50 [11]: 6.96 µM (active)
EC50 [10]: 2.6 µM (active)
EC50 [1]: 0.267 µM (active)
EC50 [12]: 9.02 µM (active)
